One data set has as its system L1210. The note with it: cited from earlier work.
The next data set deals with 60 tumor cell lines. The data set can be described thus: NCI DTP Human Tumor Cell Line Screen (60 tumor cell lines, Sulforhodamine B assay). The following applies: 48 h exposure, five 10-fold dilutions. Type of data set: cell-based. From the text:
This example describes the in vitro screening of 60 tumor cell lines against the compounds of the invention: ptilomycalin A, isocrambescidin 800 trihydrochloride, triacetylcrambescidin 800 chloride, crambescidin 657 hydrochloride, crambescidin 800 trihydrochloride, triacetylisocrambescidin 800 chloride, and 13-epiptilomycalin A to determine anti-tumor activity.
The screening methods utilized the National Cancer Institute (NCI) DTP Human Tumor Cell Line Screen protocol as described by Monks et al., J. Nat'l. Cancer Inst. 83:757-766 (1991); and Boyd In “Cancer Drug Discovery and Development, Vol; 2; Drug Development; Preclinical Screening, Clinical Trial and Approval, Humana Press, 1997, pp 23-43. The origins and processing of the cell lines used are described in Alley et al., Cancer Res., 1988, 48:589-601; Shoemaker et al., Prog. Clin. Biol. Res., 1988, 276:265-286; and Stinson et al., Proc. Am. Assoc. Cancer Res., 1989, 30:613.
In brief, in the screen protocol, cell suspensions were diluted depending on cell type and the expected target cell density (approximately 5000-40,000 cells per well) into a 96 well microtiter plate. Inoculates were preincubated for 24h at 37 °C for stabilization. Dilutions at twice the intended test concentrations were added at time zero in 100 μL aliquots to the microtiter plate wells. Test compounds were evaluated at five 10-fold dilutions. Routine test concentrations have the highest well concentration at 10E-4M, but for the standard agents, the highest well concentration used depended on the agent used. Incubations lasted 48 hours in 5% CO2 atmosphere and 100% humidity. The cells were assayed by Sulforhodomine B assay as described by Rubenstein et al., JNCI, 1990, 82:1113-1118 and Skehan et al., JNCI, 1990, 82: 1107-1112. Optical densities were read with a plate reader and the data processed using a microcomputer into special concentration parameters.
NCI renamed the IC50 value, the concentration that causes 50% growth inhibition the “GI50” value to emphasize the correction for the cell count at time zero; thus GI50 is the concentration of test drug where 100×(T−T0)/(C−T0)=50 (Boyd et al., In Cytotoxic Anticancer Drugs: Models and Concepts for Drug Discovery and Development, Vieriote. et al., Eds., Kluwer Academic, Hingham, Mass., 1992, pp 11-34; and Monks et al., JNCI, 1991, 83, 757-766. The optical density of the test well after a 48 hr period of exposure to the test compound is “T”, the optical density at time zero is TO and the control optical density is “C.” The “50” is called the GI50PRCNT, a T/C-like parameter that can have values from +100 to −100. The GI50 also measures the growth inhibitory power of the test compound. The TGI is the concentration of test drug where 100×(T−T0)/(C−T0)=0. Thus, the TGI signifies a cytostatic effect. The LC50 which signifies a cytotoxic effect, is the concentration of the test compound where 100×(T−T0)/T0=−50. The control optical density is not used in the calculation of LC50.
These concentration parameters are interpolated values. The concentrations giving G150PRCNT values above and below the reference values (e.g. 50 for G150) are used to make interpolations on the concentration axis. […] For mean graph purposes, the value assumed for the G150 in such a case is the highest concentration tested (HICONC). […] In this case, the lowest concentration tested is used for the G150. Corresponding approximations are made for the TGI and for the LC50.
The results of the tumor cell screening are shown in the mean graphs of 56-62. […]

The subject of a further data set is P388. The following applies: cited from earlier work.
In data set [1] the test system is Herpes simplex virus, type 1 (HSV-1). The note with it: at a concentration of 0.2 μg/mL; cited from earlier work.
The next data set addresses brain Na+, K+-ATPase. The note with it: read-out: inhibition of brain Na+, K+-ATPase (IC50); cited from earlier work.
The test system of another data set is Candida albicans. The following applies: cited from earlier work.
For data set [2], the target named is T1, Ca2+-ATPase from skeletal sarcoplasmic reticulum (Homo sapiens, UniProt O14983).
T1 construct: from tissue; host or cells: skeletal muscle sarcoplasmic reticulum
The following applies: read-out: inhibition of Ca2+-ATPase from skeletal sarcoplasmic reticulum (IC50); cited from earlier work.

T1 sequence (O14983 whole entry): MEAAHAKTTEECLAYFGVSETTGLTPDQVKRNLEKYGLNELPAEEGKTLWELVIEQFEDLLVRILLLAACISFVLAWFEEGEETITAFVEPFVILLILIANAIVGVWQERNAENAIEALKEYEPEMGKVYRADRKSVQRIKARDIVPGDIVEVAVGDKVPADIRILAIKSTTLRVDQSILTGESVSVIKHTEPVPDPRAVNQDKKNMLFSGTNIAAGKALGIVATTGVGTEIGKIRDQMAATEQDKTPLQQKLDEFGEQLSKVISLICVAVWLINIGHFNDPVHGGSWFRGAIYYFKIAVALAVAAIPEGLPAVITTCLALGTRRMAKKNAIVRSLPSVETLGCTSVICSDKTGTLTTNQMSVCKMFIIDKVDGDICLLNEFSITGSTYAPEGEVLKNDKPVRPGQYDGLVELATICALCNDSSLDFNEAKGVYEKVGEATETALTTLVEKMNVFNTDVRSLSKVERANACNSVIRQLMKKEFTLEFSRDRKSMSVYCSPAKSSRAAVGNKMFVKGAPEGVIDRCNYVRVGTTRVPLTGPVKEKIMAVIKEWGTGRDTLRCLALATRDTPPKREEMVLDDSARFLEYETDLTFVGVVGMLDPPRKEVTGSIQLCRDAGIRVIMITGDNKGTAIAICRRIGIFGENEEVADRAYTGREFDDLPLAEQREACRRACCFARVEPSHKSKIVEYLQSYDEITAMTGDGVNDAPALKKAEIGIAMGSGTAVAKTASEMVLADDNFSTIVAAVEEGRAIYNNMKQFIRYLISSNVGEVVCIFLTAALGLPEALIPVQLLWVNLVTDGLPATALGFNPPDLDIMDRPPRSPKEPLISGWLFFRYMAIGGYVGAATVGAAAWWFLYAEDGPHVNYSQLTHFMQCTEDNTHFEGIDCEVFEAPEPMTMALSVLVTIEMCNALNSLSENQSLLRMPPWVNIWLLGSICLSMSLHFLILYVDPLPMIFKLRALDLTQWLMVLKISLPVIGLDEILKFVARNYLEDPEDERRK

“13,14,15-Isocrambescidin 800 Trihydrochloride”: the “cytotoxicity to L-1210 cells relative to other crambescidins” value with L1210 (L-1210 cells, in words) is on record as “less cytotoxic to L-1210 cells than other crambescidins”. For the same compound, the “effect on tumor cell lines in the NCI screen (mean graphs of GI50, TGI, LC50; summary in words)” value (“effect on tumor cell lines” below) with 60 tumor cell lines is recorded as “lesser effect”.

As to 13-epiptilomycalin A, in the data set with 60 tumor cell lines, the “effect on tumor cell lines” value is reported as “certain cancer cell lines are sensitive”.

Turning to `CCC1C=CCCC2(CC3CCC4C(C(=O)OCCCCCCCCCCCCCCCC(=O)N(CCCN)CCCCN)C5(CCCC(C)O5)NC(=N2)N34)O1` (centres unmarked) [Ptilomycalin A], in the data set with P388, the “cytotoxicity against P388 (IC50)” value is 0.1 µg/mL. Besides, the “cytotoxicity against L1210 (IC50)” value with L1210 (L1210) was 0.4 µg/mL. Moreover, the “antiviral activity against Herpes simplex virus, type 1 (HSV-1)” value in data set [1] was “considerable antiviral activity”. In the data set on 60 tumor cell lines, the “effect on tumor cell lines” value is on record as “certain cancer cell lines are sensitive”. Further, the IC50 (as a rule, the midpoint of a concentration-inhibition curve) at brain Na+, K+-ATPase is 2 µM; in data set [2], 10 µM. Further, the “antifungal activity against Candida albicans (MIC)” value in the data set on Candida albicans is 0.8 µg/mL.

Regarding `CC[C@H]1C=CCC[C@@]2(C[C@@H]3CC[C@@H]4[C@H](C(=O)OCCCCCCCCCCCCCCCC(=O)N(CCCN)C[C@@H](O)CCN)[C@]5(CCC[C@@H](C)O5)NC(=N2)N34)O1.Cl.Cl.Cl` [crambescidin 800 trihydrochloride, Crambescidin 800 Trihydrochloride], the “effect on tumor cell lines” value in the data set on 60 tumor cell lines is listed as “certain cancer cell lines are sensitive”.

With “Peracetyl-13,14,15-Isocrambescidin 800 Hydrochloride [triacetylisocrambescidin 800 chloride]”, the “effect on tumor cell lines” value with 60 tumor cell lines is “lesser effect”.

“Peracetylcrambescidin 800 [triacetylcrambescidin 800 chloride]”: the “effect on tumor cell lines” value in the data set with 60 tumor cell lines is “certain cancer cell lines are sensitive”.

As to crambescidin 657 hydrochloride, in the data set with 60 tumor cell lines, the “effect on tumor cell lines” value is given as “certain cancer cell lines are sensitive”.

These data come from patent US20050239804A1, “Method for improved chemical synthesis of guanidinium alkaloids” (The Regents of the University of California, priority 1999, published 2005).
